Where two headings read alike, the source gives them in different places.
Experiments:
human PI3Kα protein = molecular target: T1, human PI3Kα protein (Homo sapiens, UniProt P42336); experiment: PI3Kα enzyme assay (ADP-Glo); type: biochemical; conditions: read-out: PI3Kα enzyme inhibitory activity
T1 construct: purchased Carna Biosciences, Inc; host or cells: baculovirus expression system
How it was run: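 Biotinylated human PI3Kα (baculovirus-expressed, 4.5 nmol/L) pre-incubated 15 min with compound in Tris-HCl pH 7.5, MgCl2, BSA; reaction 60 min at 25° C with 50 μmol/L PIP2 and 100 μmol/L ATP final. ADP quantified by ADP-Glo luminescence; IC50 calculated.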

[1] = molecular target: T2, GST fusion human ERK2 protein (Homo sapiens, UniProt P28482); experiment: ERK2 enzyme assay (2); type: biochemical; conditions: read-out: ERK2 enzyme inhibitory activity (2)
T2 construct: purchased Carna Biosciences, Inc; host or cells: E. coli expression system
T2 sequence (P28482 whole entry, the tested form may be a part): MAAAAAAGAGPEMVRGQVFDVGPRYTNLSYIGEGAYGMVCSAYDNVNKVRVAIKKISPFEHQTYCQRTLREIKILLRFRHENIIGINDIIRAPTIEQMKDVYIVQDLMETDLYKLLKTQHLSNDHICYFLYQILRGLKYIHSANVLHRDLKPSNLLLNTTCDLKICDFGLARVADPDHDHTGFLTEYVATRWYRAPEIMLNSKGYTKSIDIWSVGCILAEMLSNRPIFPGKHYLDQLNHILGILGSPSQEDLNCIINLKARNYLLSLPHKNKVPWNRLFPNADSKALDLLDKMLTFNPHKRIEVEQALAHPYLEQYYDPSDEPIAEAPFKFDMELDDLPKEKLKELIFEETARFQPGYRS
How it was run: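 GST-tagged human ERK2 expressed in E. coli (1.25 nmol/L) was preincubated with compound for 15 min at room temperature in pH 7.5 Hepes buffer with MgCl2, DTT and Brij35. Reaction with FL-Peptide 8 (final 4.25 μmol/L) and ATP (final 1 mmol/L) ran 120 min at 25 °C; EDTA stopped it, and phosphorylated peptide was quantified by mobility-shift separation to derive IC50.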

CHO-K1 cells = experiment: CHO cell toxicity test; type: cell-based, Chinese hamster; conditions: Cricetulus griseus, read-out: IC50 value (concentration at which the number of viable cells was suppressed to 50% or less)
Experimental: In a CHO cell toxicity test, the following was used.
Cell: CHO-K1 cells (derived from Chinese hamster ovary) Test medium: F-12 MEDIUM+FCS (manufactured by Biowest) having a final concentration of 2%
Detection reagent: CELLTITER-GLO™ LUMINESCENT CELL VIABILITY ASSAY (trade name, manufactured by PROMEGA Corporation)
The CHO-K1 cells were seeded in a 96-well microplate for culture at 5,000 cells/well, and cultured in a CO2 incubator (37° C.) for 24 hours. An evaluation compound (final concentration: from 25.00 μmol/L to 0.20 μmol/L, common ratio: […]) was added thereto, followed by culturing for 24 hours, and the number of viable cells was calculated from emission intensity by CELLTITER-GLO™ (trade name, manufactured by PROMEGA Corporation). In the measurement of the emission intensity, VARIOSKAN FLASH (manufactured by Thermo Fisher Scientific Inc.) was used.
Inhibition ratio (%)=100−(A/B)×100
A: Emission intensity in the presence of a test compound
B: Emission intensity in the absence of a test compound

[2] = CHO-K1 cells, 24 hours culture with compound, CellTiter-Glo

T1 sequence (P42336 whole entry): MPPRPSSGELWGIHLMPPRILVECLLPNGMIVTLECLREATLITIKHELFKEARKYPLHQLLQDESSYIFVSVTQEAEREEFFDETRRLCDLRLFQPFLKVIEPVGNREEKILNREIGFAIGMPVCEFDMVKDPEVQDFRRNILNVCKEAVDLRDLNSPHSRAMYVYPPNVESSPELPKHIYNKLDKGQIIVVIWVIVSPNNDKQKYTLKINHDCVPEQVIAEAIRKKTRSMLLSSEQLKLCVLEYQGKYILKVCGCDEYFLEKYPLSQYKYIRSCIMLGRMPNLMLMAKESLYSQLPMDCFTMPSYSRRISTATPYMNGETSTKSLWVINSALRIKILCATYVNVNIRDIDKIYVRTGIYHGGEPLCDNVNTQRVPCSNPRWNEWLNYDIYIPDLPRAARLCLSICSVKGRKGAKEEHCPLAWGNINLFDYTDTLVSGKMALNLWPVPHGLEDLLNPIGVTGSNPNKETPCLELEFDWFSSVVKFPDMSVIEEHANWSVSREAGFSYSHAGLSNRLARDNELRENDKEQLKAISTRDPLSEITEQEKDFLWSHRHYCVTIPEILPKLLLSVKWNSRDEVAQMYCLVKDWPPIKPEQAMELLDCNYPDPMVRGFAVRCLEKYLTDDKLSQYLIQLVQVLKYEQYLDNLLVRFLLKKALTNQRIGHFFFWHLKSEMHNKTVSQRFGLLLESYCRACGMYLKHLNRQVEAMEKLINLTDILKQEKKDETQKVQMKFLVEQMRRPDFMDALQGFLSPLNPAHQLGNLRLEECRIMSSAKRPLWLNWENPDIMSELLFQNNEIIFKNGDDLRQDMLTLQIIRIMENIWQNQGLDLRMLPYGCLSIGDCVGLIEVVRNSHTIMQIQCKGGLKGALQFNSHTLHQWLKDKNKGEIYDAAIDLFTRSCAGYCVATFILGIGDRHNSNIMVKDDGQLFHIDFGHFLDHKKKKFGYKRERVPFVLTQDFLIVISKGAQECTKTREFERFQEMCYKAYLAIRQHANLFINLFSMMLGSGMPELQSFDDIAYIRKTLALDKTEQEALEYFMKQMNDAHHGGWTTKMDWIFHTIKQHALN
T1 sequence (P27986 whole entry partner): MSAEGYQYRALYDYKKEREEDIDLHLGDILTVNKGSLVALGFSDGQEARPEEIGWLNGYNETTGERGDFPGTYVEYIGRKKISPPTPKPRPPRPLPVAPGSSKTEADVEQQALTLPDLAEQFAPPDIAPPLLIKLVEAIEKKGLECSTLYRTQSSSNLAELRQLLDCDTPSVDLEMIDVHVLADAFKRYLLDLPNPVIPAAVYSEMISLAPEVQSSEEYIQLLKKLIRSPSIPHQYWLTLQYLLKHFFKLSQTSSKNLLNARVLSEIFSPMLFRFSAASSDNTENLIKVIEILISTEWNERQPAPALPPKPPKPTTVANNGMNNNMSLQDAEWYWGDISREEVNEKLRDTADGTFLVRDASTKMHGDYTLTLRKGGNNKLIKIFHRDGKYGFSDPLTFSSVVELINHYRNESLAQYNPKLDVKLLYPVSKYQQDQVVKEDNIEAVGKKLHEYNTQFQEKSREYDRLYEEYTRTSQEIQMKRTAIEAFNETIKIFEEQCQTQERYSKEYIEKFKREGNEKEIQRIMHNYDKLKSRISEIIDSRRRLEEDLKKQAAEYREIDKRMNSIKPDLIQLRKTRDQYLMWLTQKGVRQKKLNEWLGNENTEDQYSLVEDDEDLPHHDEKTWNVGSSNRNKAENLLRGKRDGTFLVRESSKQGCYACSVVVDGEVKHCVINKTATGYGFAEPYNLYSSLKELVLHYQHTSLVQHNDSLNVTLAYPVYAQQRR

| SMILES | IC50 (human PI3Kα protein) [µM] | IC50 ([1]; ERK2 enzyme assay (2)) [µM] | IC50 (CHO-K1 cells; [2]) [µM] | IC50 (CHO-K1 cells; CHO-K1, 24 h) [µM] | IC50 [1] [µM] |
| --- | --- | --- | --- | --- | --- |
| Cc1nn(CCCN2C[C@@H](C)O[C@@H](C)C2)cc1-c1cnc2ccc(Nc3cc(C(C)C)cnn3)nc2c1 [Example 0431] | < 1 | < 1 | ≥ 25 | – | – |
| CC(C)c1cnnc(Nc2ccc3ncc(-c4cn(C)nc4C4CC4)cc3n2)c1 [Example 0567] | < 1 | < 1 | ≥ 25 | – | – |
| CC(C)c1cnnc(Nc2ccc3ncc(-c4cnn(CCCN5CC6CCC(C5)O6)c4)cc3n2)c1 [Example 0653, 7-(1-(3-(8-Oxa-3-azabicyclo[3.2.1]octan-3-yl)propyl)-1H-pyrazol-4-yl)-N-(5-isopropylpyridazin-3-yl)-1,5-naphthyridine-2-amine] | < 1 | < 1 | ≥ 25 | – | – |
| CCc1cnnc(Nc2ccc3ncc(-c4cn(C)nc4C)cc3n2)c1 [Example 0756, 7-(1,3-Dimethyl-1H-pyrazol-4-yl)-N-(5-ethylpyridazin-3-yl)-1,5-naphthyridine-2-amine] | < 1 | < 1 | ≥ 25 | – | – |
| COC1CN(CCCn2cc(-c3cnc4ccc(Nc5cc(C(C)C)cnn5)nc4c3)cn2)C1 [Example 0630] | < 1 | < 1 | ≥ 25 | – | – |
| CC(C)c1cnnc(Nc2ccc3ncc(-c4cnn(CCCN5CCOCC5(C)C)c4)cc3n2)c1 [Example 0657] | < 1 | < 1 | ≥ 25 | – | – |
| CCn1cc(-c2cnc3ccc(Nc4cc(C(C)C)cnn4)nc3c2)c(-c2cccnc2)n1 [Example 0576] | < 1 | < 1 | ≥ 25 | – | – |
| CC(C)c1cnnc(Nc2ccc3ncc(-c4cnn(CC5CN(S(C)(=O)=O)C5)c4)cc3n2)c1 [Example 0572, N-(5-isopropylpyridazin-3-yl)-7-(1-((1-(methylsulfonyl)azetidin-3-yl)methyl)-1H-pyrazol-4-yl)-1,5-naphthyridine-2-amine] | < 1 | < 1 | ≥ 25 | – | – |
| CC(C)c1cnnc(Nc2ccc3ncc(-c4cnn(CCCN5CCOCC5=O)c4)cc3n2)c1 [Example 0424] | < 1 | < 1 | – | ≥ 25 | – |
| CNC(=O)C1CN(CCCn2cc(-c3cnc4ccc(Nc5cc(C(C)C)cnn5)nc4c3)cn2)C1 [Example 0687, 1-(3-(4-(6-((5-Isopropylpyridazin-3-yl)amino)-1,5-naphthyridin-3-yl)-1H-pyrazol-1-yl)propyl)-N-methylazetidine-3-carboxamide] | < 1 | < 1 | ≥ 25 | – | – |
| CC(C)c1cnnc(Nc2ccc3ncc(-c4cnn(CCCS(C)(=O)=O)c4)cc3n2)c1 [Example 0550] | < 1 | < 1 | ≥ 25 | – | – |
| CC(C)c1cnnc(Nc2ccc3ncc(-c4cnn(CCCN5CC6CC(C5)O6)c4)cc3n2)c1 [Example 0637, 7-(1-(3-(6-Oxa-3-azabicyclo[3.1.1]heptan-3-yl)propyl)-1H-pyrazol-4-yl)-N-(5-isopropylpyridazin-3-yl)-1,5-naphthyridine-2-amine] | < 1 | < 1 | ≥ 25 | – | – |
| CC(C)c1cnnc(Nc2ccc3ncc(-c4cnn(CC(F)(F)F)c4)cc3n2)c1 [Example 0460] | < 1 | < 1 | ≥ 25 | – | – |
| CC(C)c1cnnc(Nc2ccc3ncc(-c4cnn(CC5CCOCC5)c4)cc3n2)c1 [Example 0482] | < 1 | < 1 | ≥ 25 | – | – |
| Cc1ncccc1-c1nn(C)cc1-c1cnc2ccc(Nc3cc(C(C)C)cnn3)nc2c1 [Example 0737] | < 1 | < 1 | ≥ 25 | – | – |
| CC(C)c1cnnc(Nc2ccc3ncc(-c4cnn([C@H]5CCN(C)C5)c4)cc3n2)c1 [Example 0492] | < 1 | < 1 | ≥ 25 | – | – |
| CC(C)c1cnnc(Nc2ccc3ncc(-c4cnn(CCC5CCN(C)CC5)c4)cc3n2)c1 [Example 0487, N-(5-isopropylpyridazin-3-yl)-7-(1-(2-(1-methylpiperidin-4-yl)ethyl)-1H-pyrazol-4-yl)-1,5-naphthyridine-2-amine] | < 1 | < 1 | ≥ 25 | – | – |

| SMILES | IC50 (human PI3Kα protein) [µM] | IC50 ([1]; ERK2 enzyme assay (2)) [µM] | IC50 (CHO-K1 cells; [2]) [µM] | IC50 (CHO-K1 cells; CHO-K1, 24 h) [µM] | IC50 [1] [µM] |
| --- | --- | --- | --- | --- | --- |
| CC(C)c1cnnc(Nc2ccc3ncc(-c4cnn(CCCN5CCC(O)CC5)c4)cc3n2)c1 [Example 0430] | < 1 | < 1 | ≥ 25 | – | – |
| CC(C)c1cnnc(Nc2ccc3ncc(-c4cn(C)nc4CC4CC4)cc3n2)c1 [Example 0781] | < 1 | < 1 | – | ≥ 25 | – |
| CC(C)c1cnnc(Nc2ccc3ncc(-c4cnn(CCCN5CCOCC5CO)c4)cc3n2)c1 (stereo not drawn) [Example 0685] | < 1 | < 1 | ≥ 25 | – | – |
| CCCc1cnnc(Nc2ccc3ncc(-c4cn(C)nc4C)cc3n2)c1 [Example 0919] | < 1 | – | ≥ 25 | – | < 1 |
| CCN(c1cnnc(Nc2ccc3ncc(-c4cnn(C)c4)cc3n2)c1)C(C)C [Example 0500] | < 1 | < 1 | ≥ 25 | – | – |
| Cn1cc(-c2cnc3ccc(Nc4cc(C5CC5)cnn4)nc3c2)c(-c2cccnc2)n1 [Example 0573, N-(5-cyclopropylpyridazin-3-yl)-7-(1-methyl-3-(pyridin-3-yl)-1H-pyrazol-4-yl)-1,5-naphthyridine-2-amine] | < 1 | < 1 | ≥ 25 | – | – |
| Cc1cc(-c2nn(C)cc2-c2cnc3ccc(Nc4cc(C(C)C)cnn4)nc3c2)ccn1 [Example 0738] | < 1 | < 1 | ≥ 25 | – | – |
| CC(C)c1cnnc(Nc2ccc3ncc(-c4cnn(Cc5cccc(N)c5)c4)cc3n2)c1 [Example 0712, 7-(1-(3-Aminobenzyl)-1H-pyrazol-4-yl)-N-(5-isopropylpyridazin-3-yl)-1,5-naphthyridine-2-amine] | < 1 | < 1 | ≥ 25 | – | – |
| COC1CN(CC(Cn2cc(-c3cnc4ccc(Nc5cc(C(C)C)cnn5)nc4c3)cn2)OC)C1 (stereo not drawn) [Example 0812, N-(5-isopropylpyridazin-3-yl)-7-(1-(2-methoxy-3-(3-methoxyazetidin-1-yl)propyl)-1H-pyrazol-4-yl)-1,5-naphthyridine-2-amine] | < 1 | < 1 | ≥ 25 | – | – |
| COc1ccc(-c2nn(C)cc2-c2cnc3ccc(Nc4cc(C(C)C)cnn4)nc3c2)cn1 [Example 0456] | < 1 | < 1 | ≥ 25 | – | – |
| CC(C)c1cnnc(Nc2ccc3ncc(-c4cnn(CCCN5CC(F)C5)c4)cc3n2)c1 [Example 0694, 7-(1-(3-(3-Fluoroazetidin-1-yl)propyl)-1H-pyrazol-4-yl)-N-(5-isopropylpyridazin-3-yl)-1,5-naphthyridine-2-amine] | < 1 | < 1 | ≥ 25 | – | – |
| CC(C)c1cnnc(Nc2ccc3ncc(-c4cnn(CCCN5C[C@@H](C)N(C)[C@@H](C)C5)c4)cc3n2)c1 [Example 0426, N-(5-isopropylpyridazin-3-yl)-7-(1-(3-((3S,5R)-3,4,5-trimethylpiperazin-1-yl)propyl)-1H-pyrazol-4-yl)-1,5-naphthyridine-2-amine] | < 1 | < 1 | ≥ 25 | – | – |
| CC(C)c1cnnc(Nc2ccc3ncc(-c4cnn(CCC(C)N5CCOCC5)c4)cc3n2)c1 (stereo not drawn) [Example 0418, N-(5-isopropylpyridazin-3-yl)-7-(1-(3-morpholinobutyl)-1H-pyrazol-4-yl)-1,5-naphthyridine-2-amine] | < 1 | < 1 | ≥ 25 | – | – |
| CC(C)c1cnnc(Nc2ccc3ncc(-c4cn(C)nc4CF)cc3n2)c1 [Example 0626, 7-(3-(Fluoromethyl)-1-methyl-1H-pyrazol-4-yl)-N-(5-isopropylpyridazin-3-yl)-1,5-naphthyridine-2-amine] | < 1 | < 1 | ≥ 25 | – | – |
| Cc1nn(C)cc1-c1cnc2ccc(Nc3cc(C(C)C)cnn3)nc2c1 [Example 0757, 7-(1,3-dimethyl-1H-pyrazol-4-yl)-N-(5-isopropylpyridazin-3-yl)-1,5-naphthyridine-2-amine] | < 1 | < 1 | ≥ 25 | – | – |
| CC(C)c1cnnc(Nc2ccc3ncc(-c4cnn(CCCN5CCS(=O)(=O)CC5)c4)cc3n2)c1 [Example 0417, 4-(3-(4-(6-((5-isopropylpyridazin-3-yl)amino)-1,5-naphthyridin-3-yl)-1H-pyrazol-1-yl)propyl)thiomorpholine 1,1-dioxide] | < 1 | < 1 | ≥ 25 | – | – |

— patent US9783536B2, “Nitrogen-containing heterocyclic compound or salt thereof” (FUJIFILM Corporation, priority 2013, dated 2017)
